Test results taken from publication PMC10119279 (Scientific Reports, 2023).
Several values for one entry are separate records, joined by “and”; a condition that tells them apart may be missing. Equal entries are not always repeated. Where two headings read alike, the source gives them in different places.

What was measured:
Sprague Dawley rats = test system: Sprague Dawley rats
Experimental: Following treatment, a 2 week observation period with twice daily examination for morbidity and mortality was performed.

[1] = test system: serum carnosinase (CN1) enzyme; conditions: cited from earlier work; for Substrate quality for the CN1 enzyme: ref 15-17; for Hydrolysis rate as % of carnosine's: several in vitro experiments
CN1 enzyme = target: T1, CN1 enzyme (Homo sapiens, UniProt Q96KN2); assay: In vitro degradation of carnosine, anserine and balenine added to human heparin plasma; assay type: in vitro ADME; conditions: for half-life at 20 µM: human, heparin plasma
T1 construct: Fasted venous heparin plasma was collected from 6 subjects (5 males and 1 female) with a wide range in CN1 enzyme activity; from tissue; host or cells: human venous heparin plasma from 6 volunteers
T1 sequence (Q96KN2 26-507): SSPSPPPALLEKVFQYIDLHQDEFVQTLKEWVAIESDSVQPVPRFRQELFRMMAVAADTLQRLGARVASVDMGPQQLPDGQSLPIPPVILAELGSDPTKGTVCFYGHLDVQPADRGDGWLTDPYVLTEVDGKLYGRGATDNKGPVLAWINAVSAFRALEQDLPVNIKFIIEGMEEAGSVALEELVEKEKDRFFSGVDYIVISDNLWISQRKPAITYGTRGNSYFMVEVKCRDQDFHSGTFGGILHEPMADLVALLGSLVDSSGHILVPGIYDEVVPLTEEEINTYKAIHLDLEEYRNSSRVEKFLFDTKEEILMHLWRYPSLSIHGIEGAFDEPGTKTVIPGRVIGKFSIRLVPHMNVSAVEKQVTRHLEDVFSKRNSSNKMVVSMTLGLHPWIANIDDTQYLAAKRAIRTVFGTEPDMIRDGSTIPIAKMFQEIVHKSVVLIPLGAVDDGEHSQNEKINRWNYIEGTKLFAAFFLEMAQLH
Experimental: Fasted venous heparin plasma was collected from 6 subjects (5 males and 1 female) with a wide range in CN1 enzyme activity (0.32–2.92 µmol/mL/h with a mean value of 1.62 µmol/mL/h). Subjects were asked to refrain from alcohol, meat and fish the day before the sampling. […] On different time points (Table 1), plasma was deproteinized with 1:11 sulfosalicylic acid (SSA, 35% solution) to inhibit further hydrolysis. Samples were centrifuged for 5 min at 16,000 g and supernatant was stored at − 20 °C until further UHPLC-MS/MS analysis.
(§1) Extraction of plasma and urine for UHPLC-MS/MS analysis went as follows: 150 µL of deproteinized plasma/urine (not deproteinized) was added to 215 µL of acetonitrile containing 1% formic acid, 10 µL of internal standard (IS) (carnosine-D4) and 25 µL ultrapure water or standard (calibration curve and quality control samples (QC)). Then samples were vortexed and centrifuged (15 min, 4 °C, 15,000 g). Supernatant was used for further analyses.
(§2) In the in vitro study, supernatant was diluted 40 times before injection. In the PK study, plasma samples from the 10 mg/kg condition and baseline urine samples were diluted 100 times. All other urine samples were diluted 1000 times. Dilutions were conducted with acetonitrile containing 1% formic acid.
(§3) Analyses were performed on a UHPLC-MS/MS platform consisting of an Acquity H-Class Quaternary Solvent Manager and Flow-Through-Needle Sample Manager with temperature controlled tray (8 °C) and column oven (60 °C). Chromatographic separation was achieved on an Acquity UPLC BEH amide column (2.1 mm × 100 mm, 1.7 µm) with an Acquity amide Vanguard pre-column. The system operated at a flow rate of 0.3 mL/min with solvent A (ultrapure water), solvent B (acetonitrile) and solvent C (200 mM ammonium formate with 0.04% ammonia) with the gradient shown in Table 2. The UPLC column effluent was interfaced to a Xevo TQ-XS® MS/MS system (plasma samples) and Xevo TQ-S® (urine samples), equipped with an electrospray ionization (ESI) probe operating in positive ion mode. Further MS settings included desolvation gas flow rate (15 L/h), desolvation temperature (600 °C), cone gas flow rate (800 L/h), source temperature (150 °C) and capillary voltage (0.75 kV). Transition details are depicted in Table 3. […] The detector operated in multiple reacting monitoring mode, scanning the two most intense transitions of the HCDs. Masslynx software 4.2 was used for instrument control and data extraction. Hardware and software were purchased from Waters (Milford, MA, USA).
CN1 activity was quantified by fluorometric determination of histidine following carnosine addition (based on Teufel et al., 2003). The reaction was initiated by adding carnosine to the serum (final concentration of 3.33 mM carnosine) and stopped after 10 min incubation at 37 °C by adding trichloroacetic acid (final concentration of 150 mM TCA). For controls, trichloroacetic acid was added before carnosine. After centrifugation (15 min, 16000 g), 10 µl supernatant was added to 190 µl of an OPA-NaOH mixture (4000 µl incomplete ophtaldehyde, with 0.2% 2-mercaptoethanol, and 15 ml of 4 M sodium hydroxide solution) and fluorescence was determined after 40 min (excitation: 360 nm and emission: 465 nm). All chemicals were purchased from Sigma-Aldrich (Milan, Italy).
HCD concentration in the in vitro experiment was calculated relative to the starting concentration. Elimination constant (ke) and elimination half-life were calculated based on a monophasic decay profile. Incremental area under the plasma concentration time curve (iAUC) was calculated using the trapezoidal method in the PK study. A normality check was performed using Shapiro-Wilk’s test. In case of normally distributed data, a mixed-effects model and Pearson correlation was used. Skewed data were analysed with Friedman tests and Spearman rank correlations. Values are presented as mean/median ± standard deviation/inter quartile range and 95% confidence intervals (95% CI). […]

[2] = In vivo pharmacokinetic experiment: plasma and urine balenine after acute oral ingestion; design: species or system human; conditions: for Urinary balenine excretion: urine up to 24 h; for Cmax: read-out: Cmax (peak plasma concentration)
Experimental: Six subjects (3 males and 3 females) participated in this PK study in which three increasing doses were tested. For the third dose, […] was replaced, due to pregnancy, by […] with similar CN1 activity. […] This means that half of the dose was administered as 5 mg/kg (weight-relative part) and the other half was an absolute dose based on the mean weight of the subjects of the third test day (341 mg; fixed part).
The day before a test day, subjects were asked to refrain from meat and fish. Upon arrival, a catheter was inserted in an antecubital vein and a fasted ethylenediaminetetraacetic acid (EDTA, 4 mL) and serum sample (3.5 mL, to determine CN1 activity) were collected. […] The following 2 h, every 30 min an EDTA blood sample was taken. Then after 3, 4, 5, 8 and 24 h, another sample was withdrawn. Urine was collected after 150 min, 5, 8 and 24 h. The subjects arrived in the lab and remained fasted until 2 h after ingesting the supplement. Subjects remained in the lab until the post 8 h blood sample, and returned the following morning for the post 24 h sample. Throughout the test day, food intake was standardized (lacto-ovo-vegetarian diet) ensuring minimal HCD intake for 24 h following supplement. Figure 5 gives a schematic overview of a test day.
Plasma samples were collected in pre-cooled (4 °C) EDTA tubes. Upon withdrawal, plasma was immediately deproteinized with 1:11 SSA, centrifuged (5 min, 16 000 g) and stored at − 20 °C.
as §1, §2, §3
CN1 activity was quantified by fluorometric determination of histidine following carnosine addition (based on Teufel et al., 2003).

[3] = design: method as in PMID 30449006; conditions: ref 10; cited from earlier work
clinical = conditions: both, human, plasma and urine, oral
Experimental: Plasma concentrations were described using a 1-compartmental model, with sequential zero- and first-order absorption and linear elimination. Cumulative urine concentrations were fitted simultaneously with plasma concentrations. Inter-occasion variability was also implemented and assumed to follow a lognormal distribution. Residual variability was described using a combined error model, consisting of an additive and a proportional component. The following covariates were tested: sex, age, weight, CN1 activity and dose. Model evaluation was done based on standard goodness-of-fit metrics (objective function value, standard errors) and plots.

[4] = compared to carnosine and anserine; cited from earlier work
[5] = cited from earlier work
[6] = test system: human peptide transporter 2 (PEPT2); design: method as in PMID 20067523; conditions: ref 23; cited from earlier work
[7] = both sexes, 20 µM added to human heparin plasma, 37 °C, 6 subjects, read-out: Half-life in plasma
[8] = in vitro human heparin plasma, factor ×, not significant
[9] = 20 µM added to heparin plasma, 37 °C
[10] = 20 µM added to human heparin plasma, 37 °C, 6 subjects

Cn1cnc(CC(NC(=O)CCN)C(=O)O)c1 [balenine, β-alanyl-N(τ)-methyl-L-histidine]
Pathological changes, morbidity and mortality (Sprague Dawley rats; female Sprague Dawley rats, acute increasing doses up to 2000 mg/kg, 2 week observation): No pathological changes were observed in any animal
Dose concluded safe (Sprague Dawley rats; female, Sprague Dawley, rat, in vivo, 2 weeks): 2000 mg/kg
Substrate quality for the CN1 enzyme [1]: poor
Rate of hydrolysis relative to carnosine ([1]; ref 15): 8%
Rate of hydrolysis relative to carnosine ([1]; ref 16): 3.81%
Hydrolysis rate as % of carnosine's [1]: 5–20%
Time remaining elevated above LOQ in plasma (CN1 enzyme; 20 µM added to heparin plasma, 37 °C, LOQ 0.05 µM): up to 5 h
half-life at 20 µM (CN1 enzyme; [7]): 34.9 ± 14.6 min
half-life at 20 µM (CN1 enzyme; in vitro, read-out: Half-life in plasma with the highest CN1 activity): 15 min
Half-life in plasma with the lowest CN1 activity relative to highest (CN1 enzyme; in vitro): threefold higher half-life
Elimination rate constant relative to carnosine (CN1 enzyme; in vitro human heparin plasma): 3.86%
Elimination constant ke: factor lower for balenine compared to carnosine (CN1 enzyme; in vitro human heparin plasma, factor ×): 25.9
Elimination constant ke: factor difference between balenine and anserine (CN1 enzyme; [8]): 14.0
Duration of zero-order input (dT1) (1 and 4 mg/kg doses, shorter for 10 mg/kg): 1.13 h
Absorption constant (ka) (first-order absorption, fixed to last estimated value): 3.48 h⁻¹
Fraction excreted in urine (pu) (population estimate): 0.56
Urinary excretion as % of the ingested dose ([2]; 1 mg/kg oral): 27.3%
Urinary balenine excretion ([2]; 1 mg/kg oral): 19.3 ± 13.1 mg
Time plasma balenine remained significantly increased ([2]; 4 mg/kg oral): up to 3 h
Urinary excretion as % of the ingested dose ([2]; 4 mg/kg oral): 29.7%
Urinary balenine excretion ([2]; 4 mg/kg oral): 82.0 ± 40.5 mg
Cmax of balenine relative to anserine at the same dose ([2]; 10 mg/kg oral): 25.9 fold
Plasma iAUC of balenine relative to anserine ([2]; 10 mg/kg oral): 136 fold
Time plasma balenine remained significantly increased ([2]; 10 mg/kg oral): up to 8 h
Urinary excretion as % of the ingested dose ([2]; 10 mg/kg oral): 25.2%
Cmax ([2]; 10 mg/kg oral (fragmented dose), human, n = 6): 28 µM
Plasma iAUC ([2]; 10 mg/kg oral, human): 8960 µM·min
Urinary balenine excretion ([2]; 10 mg/kg oral): 176 ± 95.9 mg
Average excreted percentage of the dose in urine (intact) ([2]; average over doses, n = 6): 27.4%
Cmax ([2]; both sexes, human, plasma, po, 1 mg/kg, 1 mg/kg oral, human, n = 6): 1.6 ± 0.5 µM
Cmax ([2]; both sexes, human, plasma, po, 4 mg/kg, 4 mg/kg oral, human, n = 6): 7.1 ± 1.2 µM
Cmax ([2]; both sexes, human, plasma, po, 10 mg/kg, 10 mg/kg oral (fragmented dose), human, n = 6): 28.2 ± 7.4 µM
Cmax ratio 4 mg/kg vs 1 mg/kg ([2]; oral, human): 4.4 times
Cmax ratio 10 mg/kg vs 1 mg/kg ([2]; oral, human): 17.6 fold and 18 fold
Cmax ratio 10 mg/kg vs 4 mg/kg ([2]; oral, human): 4 times
Urinary excretion after 1 mg/kg: times lower than after 4 mg/kg ([2]; oral, human): 4 times
iAUC ratio 4 mg/kg vs 1 mg/kg ([2]; oral, human): 3.8 times
iAUC ratio 10 mg/kg vs 1 mg/kg ([2]; oral, human): 14.2 fold
iAUC ratio 10 mg/kg vs 4 mg/kg ([2]; oral, human): 3.7 times
Ability to quench reactive aldehydes such as HNE and acrolein [3]: lacks the ability to quench reactive aldehydes
Vd (clinical): 126 L
clearance (clinical): 327 mL/min
half-life (clinical): 12 min
Antioxidant and iron-chelating capacity [4]: higher antioxidant and iron-chelating capacity than carnosine and anserine

Cn1cncc1C[C@H](NC(=O)CCN)C(=O)O [anserine, β-alanyl-N(π)-methyl-L-histidine, reference compound]
Substrate quality for the CN1 enzyme [1]: intermediate
Hydrolysis rate as % of carnosine's [1]: 30–50%
Time after which undetectable in plasma (CN1 enzyme; [9]): 15 min
Half-life in plasma (CN1 enzyme; [10]): 2 min
half-life at 20 µM (CN1 enzyme; [7]): 2.14 ± 0.58 min
Elimination constant ke: factor difference between carnosine and anserine (CN1 enzyme; [8]): 1.8
Cmax ([5]; 4 mg/kg oral, human): 0.54 µM
Cmax ([5]; 10 mg/kg oral, human): 1.1 µM
Plasma iAUC ([5]; 10 mg/kg oral, human): 66.7 µM·min
Dose-dependent peak plasma concentrations after ingestion ([5]; human): 0.5 to 3.1 µM
Average excreted percentage of the dose in urine (intact) ([5]; n = 7): 6.3%
Affinity for PEPT2 [6]: high-affinity ligand

NCCC(=O)NC(CO)Cc1cnc[nH]1 (stereo not drawn) [carnosinol, reference compound]
Resistance to CN1 ([1]; ref 29): resistant to CN1

NCCC(=O)N[C@@H](Cc1cnc[nH]1)C(=O)O [carnosine, β-alanyl-L-histidine, reference compound]
Substrate quality for the CN1 enzyme [1]: good
Time after which undetectable in plasma (CN1 enzyme; [9]): 5 min
Half-life in plasma (CN1 enzyme; [10]): 1 min
half-life at 20 µM (CN1 enzyme; [7]): 1.2 ± 0.36 min
Plasma concentration change after ingestion ([5]; 60 mg/kg bodyweight, only in people with low CN1 activity): small increase
Plasma level after ingestion ([5]; highest dose of 20 mg/kg oral, human): barely measurable
